Assay results from patent publication US20250154105A1, “POLYCYCLIC COMPOUND AND USE THEREOF” (TYK MEDICINES, INC., priority 2021, published 2025).

Legend:
[1] = Rat pharmacokinetic experiment; assay type: in vivo; conditions: po, male SD rats, gavage (p.o.), 10 mg/kg, plasma
Source text: TEST EXAMPLE 3 PHARMACOKINETIC EXPERIMENT OF COMPOUNDS
Pharmacokinetic test of compounds T-32/T-105/T-253/T-272/T-273/T-277 of the present invention.
Experimental Protocol of Rat Pharmacokinetics
• (1) Required animals: healthy adult SD rats, male, 3 rats, 6-8 weeks old; weighing 200-300 g. • (2) Required equipments: analytical balance, animal weight scale, magnetic stirrer, refrigerated centrifuge, single-channel manual pipettor, etc. • (3) Required reagents: EDTA-Na2 anticoagulant, etc. 11.2 g of EDTA-Na2 was weighed and placed in a reagent flask, 100 mL of normal saline was added, and the flask was shook to completely dissolve it. After the preparation was completed, it was divided into 1.5 mL centrifuge tubes with 20 uL each for whole blood sample collection. • (3) About 10 mg of the sample to be tested was accurately weighed, 5% DMSO after conversion was added to dissolve, then 30% PEG400 and 65% (10% Hp-β-CD in PBS) were added for sonication, and vortex-mixed evenly to obtain a solution with a concentration of 1 mg/mL which is freshly prepared before use. • (4) 0.1 mL of sample was taken into a 1.5 mL centrifuge tube and stored at −80° C. for concentration analysis of drug administration solution. • (5) Animals were kept in rat cages, and fasted (not less than 10 h) from the day before the test(but water was allowed). The animals were separately weighed and marked at the tail on the day of the test. Blank blood was collected before administration. The blood was collected from tail vein. • (6) Route of administration: gavage (p.o.); dosage: 10 mg/kg; administration volume: 10 mL/kg. • (7) Operation process: Use the left hand with anti-bite gloves to catch the rat, make it stand upright, stretch the 16th gastric lavage needle from the throat of the mouth, insert the needle when feeling out no obvious resistance, and then inject the drug into the stomach. • (8) 0.2 ml of whole blood was collected from the tested animals and added into EDTA-Na2 anticoagulant tubes before administration and 0.5 h, 1 h, 2 h, 4 h, 6 h, 8 h, 12 h and 24 h after administration respectively. The tubes were reversed up and down for 3-4 times and mixed evenly, centrifuged at 4° C. at 10000 g for 5 min to separate plasma, and stored at −80° C. for testing. The blood was collected from tail vein. • (9) LC-MS/MS method was established to determine the concentration of original drug in plasma, the blood drug concentration-time curve was drawn, and the main pharmacokinetic parameters were calculated by non-compartment model. • (10) Pharmacokinetic parameters of T-32/T-105/T-253/T-272/T-273/T-277 were shown below in Table 2.

[2] = test system: human pleural mesothelioma cells NCI-H226; test: Cell anti-proliferation experiment (CCK8), NCI-H226; assay type: cell-based
In short: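 Viability was measured by CCK-8 (3 h, A450) after 3-day treatment with 0.15–333.33 nM compound in 0.1% DMSO medium. Curve-fitted IC50 was based on viability normalised to no-drug and cell-free controls.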

YAP-TEAD = YAP-TEAD inhibitor activity by Nano luciferase method (8xGTiiC-nLuc reporter in 293T cells); assay type: cell-based; conditions: Homo sapiens, HEK-293T, 48 hours incubation, read-out: Nano-luciferase detection (IC50)
In short: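 293T cells transiently transfected with pGL3B-8xGTiiC-nLuc-CMV-fLuc, seeded 2000 cells/well, then treated 48 h at 37 °C with compounds in 1:3.16 dilution series (top 10,000 nM). Nano luciferase signal read after cell lysis; IC50 from percent of 0 nM control.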

Structure (SMILES) | AUC(0-t) [1] | Cmax [1] | MRT last [1] | Tmax [1] | IC50 [2] | IC50 (YAP-TEAD)
CC(C)NC(=O)c1ccc2c(-c3ccc(C(F)(F)F)cc3)cccc2c1 [Control compound 1, reference compound] | 2180 ng·h/mL | 584 ng/mL | 2.92 h | 2 h |  | 
C[C@@H](NC(=O)c1ccc2c(ccc(=O)n2-c2ccc(C(F)(F)F)cc2)c1)c1ccccn1 [Example T-24] |  |  |  |  | 1000 to 5000 nM | 1000 to 5000 nM
CNS(=O)(=O)c1ccc2c(c1)c1nn(C)cc1c(=O)n2-c1ccc(C)cc1 [Example T-82] |  |  |  |  | ≤ 1000 nM | ≤ 1000 nM
COc1cccnc1[C@@H](C)NC(=O)c1ccc2c(c1)c1nn(C)cc1c(=O)n2-c1ccc(C(F)(F)F)cc1 [Example T-135] |  |  |  |  | 1000 to 5000 nM | 1000 to 5000 nM
C=C(C)C(=O)Nc1ccc2c(c1)c1nn(C)cc1c(=O)n2-c1ccc(C(F)(F)F)cc1 [Example T-236] |  |  |  |  | ≤ 1000 nM | ≤ 1000 nM
Cn1cc2c(=O)n(-c3ccc(C(F)(F)F)cc3)c3ccc(NC(=O)/C=C/CN4CCOCC4)cc3c2n1 [Example T-178] |  |  |  |  | ≤ 1000 nM | ≤ 1000 nM
Cc1scc2c(=O)n(-c3ccc(C(F)(F)F)cc3)c3ncc(C(=O)N[C@@H](C)c4ccccn4)cc3c12 [Example T-372] |  |  |  |  | 1000 to 5000 nM | 1000 to 5000 nM
CNS(=O)(=O)c1ccc2c(c1)c1nn(C)cc1c(=O)n2-c1ccccc1 [Example T-61] |  |  |  |  | ≤ 1000 nM | ≤ 1000 nM
COC(=O)c1ccc2c(c1)c1ncn(C)c1c(=O)n2-c1ccc(C(F)(F)F)cc1 [Example T-99] |  |  |  |  | 1000 to 5000 nM | 1000 to 5000 nM
C[C@H](NS(=O)(=O)c1ccc2c(c1)c1nn(C)cc1c(=O)n2-c1ccc(C(F)(F)F)cc1)c1ccccc1 [Example T-165] |  |  |  |  | 1000 to 5000 nM | 1000 to 5000 nM
C[C@H](NC(=O)c1ccc2c(c1)c1nn(C)cc1c(=O)n2-c1ccc(C(F)(F)F)cc1)c1cc(Cl)ccn1 [Example T-128] |  |  |  |  | ≤ 1000 nM | ≤ 1000 nM
Cc1scc2c1c(=O)n(-c1ccc(C(F)(F)F)cc1)c1ncc(C(=O)N[C@@H](C)c3ccccn3)cc21 [Example T-373] |  |  |  |  | 1000 to 5000 nM | 1000 to 5000 nM
CNS(=O)(=O)c1ccc2c(c1)c1cn(CCOC)nc1c(=O)n2-c1ccc(C(F)(F)F)cc1 [Example T-45] |  |  |  |  | ≤ 1000 nM | ≤ 1000 nM
CNS(=O)(=O)c1ccc2c(c1)c1nn(C)cc1c(=O)n2-c1cc(F)cc(F)c1 [Example T-322] |  |  |  |  | ≤ 1000 nM | ≤ 1000 nM
C[C@H](NC(=O)c1ccc2c(c1)c1csc(F)c1c(=O)n2-c1ccc(C(F)(F)F)cc1)c1ccccn1 [Example T-299] |  |  |  |  | ≤ 1000 nM | ≤ 1000 nM
